Several values for one entry are separate records, joined by “and”; a condition that tells them apart may be missing. Equal entries are not always repeated.
Assays:
[1] = tested on: reduced glutathione (GSH); experiment: Glutathione (GSH) reactivity assay; assay type: physicochemical; details: 5 mM reduced glutathione (GSH) in potassium phosphate buffer; 5 mM GSH, 37 °C, pH 7.4
Protocol: MN551/MN714 (1/10 μM) were incubated at 37 °C with 5 mM GSH in 100 mM potassium phosphate buffer, pH 7.4 (0.1% DMSO). […] Samples were then analyzed with an LC (Shimadzu LC-40)/MS/MS (Triple Quad 6500+). From the mass spectrum, peak area ratios (peak area analyte/peak area of a stable internal standard) were calculated and the percent compound remaining was determined relative to time zero.

[2] = biological target: T1, HiBiT-SOCS2 fusion in HeLa cells (Homo sapiens, UniProt O14508); experiment: Split-NanoLuc CETSA, live-cell mode; assay type: cell-based; parameters: Produrg CETSA screening, raw signal: reference not given here; details: for Produrg CETSA screening, raw signal: 50uM 20hrs; for Tagg shift, live-cell CETSA: HeLa cells; for Tagg shift, live-cell CETSA / ΔT: 50 μM, 20 h; for ΔT / ΔT, individual replicates n1-n3: Prodrug screen CETSA; for ΔT: live HeLa cells, Mean n = 3
T1 construct: encoding SOCS2 (32–198) in pBiT3.1-N expression vector; expressed in transfected cells; host or cells: HeLa
Protocol: One of the challenges with small-molecule binders displaying on-target activity with recombinant proteins, is to translate their utility to a cellular context. […] One of the advantages of CETSA is that target engagement can be monitored without the need for the development of a cell-permeable tracer molecule.
We utilized CETSA in a live-cell mode to evaluate the efficacy and rank the different prodrugs. We treated live HeLa cells with 50 μM compound (prodrugs) for 20 h and monitored Tagg shift as a proxy for the combo of prodrug permeability and unmasking (Fig. 4d). […] The observation could be because the POM group unmasking requires only esterase unlike the reliance of compounds 21–23 on esterase and phosphoramidase for unmasking an aryloxy phosphoramidate group.
N-terminal HiBiT-SOCS2 fusion was generated by encoding SOCS2 (32–198) in pBiT3.1-N expression vector (Promega). The transfection and target engagement assay were performed by modifying a NanoLuc target engagement protocol (Promega) with some small modifications. Briefly, HiBiT-SOCS2 fusion construct was transfected into HeLa cells using FuGENE HD (Promega) according to the manufacturer’s protocol. HiBiT-SOCS2 fusion construct was diluted into Transfection Carrier DNA (Promega) at a mass ratio of 1:100 or 1:10 for permeabilised and live-cell CETSA respectively. FuGENE HD was added at a ratio of 1:3 (μg DNA: μL FuGENE HD). 1 part (vol) of FuGENE HD complexes thus formed were combined with 20 parts (vol) of HeLa cells suspended at a density of 2 × 10^5 cells/mL, followed by incubation in a humidified, 37 °C + 5% CO2 incubator. After 20 h of incubation HeLa cells were detached and resuspended at a density of 2.5 × 10^5 cells/mL in Opti-MEM media without serum or phenol red but supplemented with protease inhibitor cocktail (Roche). Compounds stocks were added to cell suspension to maintain a final DMSO concentration of 1%. For the permeabilised assay format, 96-well PCR plates (Thermo) were pre-treated with digitonin to have a final well concentration of 50 μg/ml. 50 μl Opti-MEM cell suspension was then aliquoted to each well of the 96-well plate. The plates are then covered with microporous tape sheet (Qiagen) prior to incubation in a humidified, 37 °C + 5% CO2 incubator. Post-incubation we heat the PCR plates in 16-point temperature (split across two runs) curve spanning degrees 40-72 °C temperature span (CFX96 Touch Real-Time PCR Detection System, BioRad). The thermal cycler block was allowed to rise to the designated temperatures prior to placement of the PCR plates into the heating block and heat treatment for 3 min. After incubating the plates at room temperature for over 3 min, 50 μl of the Nano-Glo HiBiT Lytic mix (Promega) was added to each well. Samples were mixed by pipetting and placing the plate on an orbital shaker (600 rpm) for 5 min. 20 μl of the samples (in triplicates) were transferred to a AlphaPlate-384 plate (Perkin Elmer). Luminescence was recorded with GloMax Discover Microplate Reader (Promega). To generate apparent Tagg curves, the data is first converted to percent stabilized by relating the observed luminescence to the luminescence of the lowest temperature (40 °C) for that given sample. Data are then fitted to obtain apparent Tagg values using the Boltzmann Sigmoid equation using Graphpad Prism 9.

[3] = n=1, temperature point 4 of 16, temperature not given
[4] = n=1, temperature point 5 of 16, temperature not given
[5] = n=1, temperature point 6 of 16, temperature not given
[6] = n=1, temperature point 7 of 16, temperature not given
[7] = n=1, temperature point 8 of 16, temperature not given
[8] = n=1, temperature point 9 of 16, temperature not given
[9] = n=1, temperature point 10 of 16, temperature not given
[10] = n=1, temperature point 11 of 16, temperature not given
[11] = n=1, temperature point 12 of 16, temperature not given
[12] = n=1, temperature point 13 of 16, temperature not given
[13] = n=1, temperature point 14 of 16, temperature not given
[14] = n=1, temperature point 15 of 16, temperature not given
[15] = n=1, temperature point 16 of 16, temperature not given
[16] = n=2, temperature point 1 of 16, temperature not given
[17] = n=2, temperature point 2 of 16, temperature not given
[18] = n=2, temperature point 3 of 16, temperature not given
[19] = n=2, temperature point 5 of 16, temperature not given
[20] = n=2, temperature point 6 of 16, temperature not given
[21] = n=2, temperature point 7 of 16, temperature not given
[22] = n=2, temperature point 8 of 16, temperature not given
[23] = n=2, temperature point 9 of 16, temperature not given
[24] = n=2, temperature point 10 of 16, temperature not given
[25] = n=2, temperature point 11 of 16, temperature not given
[26] = n=2, temperature point 12 of 16, temperature not given
[27] = n=2, temperature point 13 of 16, temperature not given
[28] = n=2, temperature point 14 of 16, temperature not given
[29] = n=2, temperature point 15 of 16, temperature not given
[30] = n=2, temperature point 16 of 16, temperature not given

T1 sequence (O14508 32-198): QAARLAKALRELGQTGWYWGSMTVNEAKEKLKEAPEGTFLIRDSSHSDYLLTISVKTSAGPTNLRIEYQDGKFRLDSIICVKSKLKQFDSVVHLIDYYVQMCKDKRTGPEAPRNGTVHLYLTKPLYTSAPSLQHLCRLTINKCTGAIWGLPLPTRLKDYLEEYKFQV
T1 sequence (Q15370 whole entry, further chain, the tested form may be a part): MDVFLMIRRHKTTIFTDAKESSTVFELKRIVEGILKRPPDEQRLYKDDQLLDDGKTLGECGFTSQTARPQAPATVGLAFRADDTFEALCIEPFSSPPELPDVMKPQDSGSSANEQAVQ
T1 sequence (Q15369 whole entry, further chain, the tested form may be a part): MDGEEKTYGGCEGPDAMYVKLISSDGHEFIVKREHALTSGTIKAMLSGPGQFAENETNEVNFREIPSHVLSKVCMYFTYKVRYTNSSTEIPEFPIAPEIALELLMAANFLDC

Structure (SMILES): O=C(CCl)Nc1cccc(CNC(=O)[C@H](Cc2ccc(OP(=O)(O)O)cc2)NC(=O)Cc2ccc(F)cc2)c1 [MN551]
- half-life [1]: > 1.17 h
- Produrg CETSA screening, raw signal [2, 3]: 51906 and 74271 and 83631
- Produrg CETSA screening, raw signal [2, 4]: 62246 and 51464 and 85761
- Produrg CETSA screening, raw signal [2, 5]: 108788 and 87275 and 106856
- Produrg CETSA screening, raw signal [2, 6]: 132974 and 140531 and 140435
- Produrg CETSA screening, raw signal [2, 7]: 134181 and 150079 and 139460
- Produrg CETSA screening, raw signal [2, 8]: 189390 and 210146 and 247725
- Produrg CETSA screening, raw signal [2, 9]: 222849 and 214562 and 260657
- Produrg CETSA screening, raw signal [2, 10]: 306316 and 347377 and 363834
- Produrg CETSA screening, raw signal [2, 11]: 497790 and 541910 and 544913
- Produrg CETSA screening, raw signal [2, 12]: 482302 and 510836 and 519812
- Produrg CETSA screening, raw signal [2, 13]: 563762 and 585700 and 590798
- Produrg CETSA screening, raw signal [2, 14]: 665581 and 663053 and 701220
- Produrg CETSA screening, raw signal [2, 15]: 691060 and 708174 and 757604
- Produrg CETSA screening, raw signal [2, 16]: 29701 and 32684 and 58114
- Produrg CETSA screening, raw signal [2, 17]: 46564 and 62785 and 77591
- Produrg CETSA screening, raw signal [2, 18]: 123506 and 129184 and 115193
- Produrg CETSA screening, raw signal [2, 19]: 47087 and 55743 and 78578
- Produrg CETSA screening, raw signal [2, 20]: 98105 and 105595 and 117544
- Produrg CETSA screening, raw signal [2, 21]: 144950 and 158240 and 171572
- Produrg CETSA screening, raw signal [2, 22]: 135100 and 139766 and 168368
- Produrg CETSA screening, raw signal [2, 23]: 229091 and 227474 and 261588
- Produrg CETSA screening, raw signal [2, 24]: 267450 and 271378 and 303431
- Produrg CETSA screening, raw signal [2, 25]: 327561 and 343740 and 362839
- Produrg CETSA screening, raw signal [2, 26]: 483965 and 500271 and 541590
- Produrg CETSA screening, raw signal [2, 27]: 506853 and 509845 and 531489
- Produrg CETSA screening, raw signal [2, 28]: 591756 and 578279 and 588133
- Produrg CETSA screening, raw signal [2, 29]: 597206 and 580381 and 582472
- Produrg CETSA screening, raw signal [2, 30]: 620665 and 663583 and 665832
- Produrg CETSA screening, raw signal ([2]; n=3, Temp, 0C 59.2): 55622
- Produrg CETSA screening, raw signal ([2]; n=3, Temp, 0C 62.3): 33828 and 45066 and 46746
- Produrg CETSA screening, raw signal ([2]; n=3, Temp, 0C 66.1): 15770 and 17572 and 22773
- Produrg CETSA screening, raw signal ([2]; n=3, Temp, 0C 69.3): 14086 and 13763 and 18636
- Produrg CETSA screening, raw signal ([2]; n=3, Temp, 0C 71.1): 13296 and 19284 and 20568
- Produrg CETSA screening, raw signal ([2]; n=3, Temp, 0C 72): 12696 and 17884 and 19057
- Tagg shift, live-cell CETSA [2]: 2 °C
- ΔT [2]: 1.99 oC
- ΔT, individual replicates n1-n3 ([2]; single replicates): 0.38 oC and 4.34 oC and 1.24 oC

Structure (SMILES): CC(C)(C)C(=O)OCOP(=O)(OCOC(=O)C(C)(C)C)Oc1ccc(C[C@H](NC(=O)Cc2ccc(F)cc2)C(=O)NCc2cccc(NC(=O)CCl)c2)cc1 [MN714]
- Produrg CETSA screening, raw signal [2, 3]: 54032 and 80376 and 105532
- Produrg CETSA screening, raw signal [2, 4]: 90582 and 99338 and 174703
- Produrg CETSA screening, raw signal [2, 5]: 139751 and 167289 and 205811
- Produrg CETSA screening, raw signal [2, 6]: 195985 and 234426 and 281536
- Produrg CETSA screening, raw signal [2, 7]: 244882 and 229067 and 241218
- Produrg CETSA screening, raw signal [2, 8]: 256289 and 277913 and 306068
- Produrg CETSA screening, raw signal [2, 9]: 320763 and 321677 and 363535
- Produrg CETSA screening, raw signal [2, 10]: 372242 and 395029 and 425781
- Produrg CETSA screening, raw signal [2, 11]: 423872 and 436050 and 431053
- Produrg CETSA screening, raw signal [2, 12]: 366601 and 377426 and 420904
- Produrg CETSA screening, raw signal [2, 13]: 362714 and 367767 and 404526
- Produrg CETSA screening, raw signal [2, 14]: 419874 and 426204 and 438598
- Produrg CETSA screening, raw signal [2, 15]: 418575 and 457050 and 469972
- Produrg CETSA screening, raw signal [2, 16]: 80745 and 156547 and 107330
- Produrg CETSA screening, raw signal [2, 17]: 108259 and 123901 and 132020
- Produrg CETSA screening, raw signal [2, 18]: 72847 and 107017 and 131297
- Produrg CETSA screening, raw signal ([2]; n=2, temperature point 4 of 16, temperature not given): 98808 and 124869 and 145900
- Produrg CETSA screening, raw signal [2, 19]: 73033 and 127162 and 126167
- Produrg CETSA screening, raw signal [2, 20]: 163432 and 190209 and 191740
- Produrg CETSA screening, raw signal [2, 21]: 242162 and 237309 and 241895
- Produrg CETSA screening, raw signal [2, 22]: 244528 and 287537 and 296136
- Produrg CETSA screening, raw signal [2, 23]: 280328 and 320314 and 333974
- Produrg CETSA screening, raw signal [2, 24]: 308215 and 329369 and 371393
- Produrg CETSA screening, raw signal [2, 25]: 342961 and 395565 and 371949
- Produrg CETSA screening, raw signal [2, 26]: 424106 and 411160 and 460047
- Produrg CETSA screening, raw signal [2, 27]: 397001 and 430594 and 470735
- Produrg CETSA screening, raw signal [2, 28]: 424646 and 453700 and 455391
- Produrg CETSA screening, raw signal [2, 29]: 402201 and 445060 and 429166
- Produrg CETSA screening, raw signal [2, 30]: 423530 and 445088 and 469114
- Produrg CETSA screening, raw signal ([2]; n=3, Temp, 0C 62.3): 15991
- Produrg CETSA screening, raw signal ([2]; n=3, Temp, 0C 66.1): 13409 and 15862 and 18690
- Produrg CETSA screening, raw signal ([2]; n=3, Temp, 0C 69.3): 10941 and 16787 and 17374
- Produrg CETSA screening, raw signal ([2]; n=3, Temp, 0C 71.1): 8072 and 11559 and 15104
- Produrg CETSA screening, raw signal ([2]; n=3, Temp, 0C 72): 10040 and 12206 and 15596
- EC50 ([2]; 2 hours EC50, MN714 dose response CETSA, Mean): 3.77 µM
- EC50 ([2]; 2 hours EC50, individual replicates n1-n4, MN714 dose response CETSA, single replicates): 2.69 µM and 3.55 µM and 5.05 µM
- EC50 ([2]; 8 hours EC50, MN714 dose response CETSA, Mean): 2.52 µM
- EC50 ([2]; 8 hours EC50, individual replicates n1-n4, MN714 dose response CETSA, single replicates): 1.93 µM and 3.11 µM and 0.902 µM and 4.13 µM
- EC50 ([2]; EC50, live-cell CETSA, 2 h of treatment): 3.8 µM
- EC50 ([2]; EC50, live-cell CETSA, 8 h of treatment): 2.5 µM
- Tagg shift, live-cell CETSA [2]: consistent superior SOCS2 engagement
- ΔT [2]: 4.89 oC
- ΔT, individual replicates n1-n3 ([2]; single replicates): 4.83 oC and 5.25 oC and 4.59 oC

Reference: publication PMC10564737, “Structure-based design of a phosphotyrosine-masked covalent ligand targeting the E3 ligase SOCS2” (Nature Communications, 2023)
